Source: patent US9776987B2, “Amide derivatives for GPR119 agonist” (CHONG KUN DANG PHARMACEUTICAL CORP., priority 2013, dated 2017)
≈ marks a conversion by molar mass, not a printed value. Where two headings read alike, the source gives them in different places.

Key:
[1] = Solubility test of GPR 119 agonist compounds (Nephelostar); assay type: physicochemical; conditions: aqueous with cosolvent or surfactant or cyclodextrin, kinetic from dmso stock
Experimental: 1. Method of Solubility Test
Each test compounds were dissolved in 5% DMSO aqueous solution as a solvent at several concentrations. When a laser was irradiated to the solution, the particles, which are not dissolved in the solvent, scatter the light. The level of the scattered light is dependent to the number of the particles, so the solubility of the test compound in the solution can be determined using the relationship. As the test equipment, Nephelostar was used.

[2] = target: T1, human GPR119 receptor (Homo sapiens, UniProt Q8TDV5); assay: Activity test for human GPR119 receptor (GeneBLAzer T-Rex GPR 119 CHO-K1 DA cells); assay type: cell-based; conditions: for EC50: human GPR119 receptor expressing CHO-K1 cells, 5 hours treatment, read-out: hGPR119 EC50; for activity for human GPR119 receptor (in words): judgement on the EC50 values of Table 11
T1 construct: host or cells: GeneBLAzer T-Rex GPR 119 CHO-K1 DA cells (CHO-K1)
T1 sequence (Q8TDV5 1-335): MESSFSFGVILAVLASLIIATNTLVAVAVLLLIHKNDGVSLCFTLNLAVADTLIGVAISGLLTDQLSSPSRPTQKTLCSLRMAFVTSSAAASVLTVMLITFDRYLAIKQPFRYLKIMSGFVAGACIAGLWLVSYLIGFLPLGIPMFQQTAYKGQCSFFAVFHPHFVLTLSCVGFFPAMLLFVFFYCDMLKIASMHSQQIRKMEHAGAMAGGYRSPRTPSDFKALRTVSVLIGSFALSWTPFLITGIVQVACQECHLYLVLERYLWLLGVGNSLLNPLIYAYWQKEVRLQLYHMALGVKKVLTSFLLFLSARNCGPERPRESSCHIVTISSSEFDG
Experimental: 1. Human GPR119 Receptor Cell
As a human GPR119 receptor expression cell for this test, the cell line “GeneBLAzer™ T-Rex GPR 119 CHO-K1 DA cells” that is commercially available from Invitrogen, was used. The cell was incubated in the DMEM media containing 1% dialyzed fetal bovine serum etc. The cell incubator was kept at constant temperature and constant humidity of 37° C., 5% CO2.
2. Activity Test for Human GPR119 Receptor
The human GPR119 receptor expressing cell was used to this test. Each of test compounds was added to be final concentrations of 0.1, 1, 10 μM in 96 well and tested in duplicate. A fixed amount of cell was added to each well of 96 well separately, and then treated with the test compound for 5 hours. After treatment of color development agent for 2 hours, the fluorescence value was determined with plate reader. To the luminous wavelength of control well, which was not treated with the sample, but in which only a vehicle […] was contained, the ratio of the luminous wavelength of test well, which was treated with the sample, was calculated, and then converted to obtain EC50 value.
3. Statistical Processing
All the results were expressed as mean±SD, and each test groups and the control group were compared using student's t-test to adjudge the effects of each test groups.

[3] = pH 2, 5% DMSO aqueous solution, read-out: Solubility pH 2
[4] = pH 4, 5% DMSO aqueous solution, read-out: Solubility pH 4
[5] = pH 6, 5% DMSO aqueous solution, read-out: Solubility pH 6
[6] = pH 8, 5% DMSO aqueous solution, read-out: Solubility pH 8

| solubility [1, 3] [µg/mL] | solubility [1, 4] [µg/mL] | solubility [1, 5] [µg/mL] | solubility [1, 6] [µg/mL] | EC50 [2] [nM] | activity for human GPR119 receptor (in words) [2] | SMILES |
| --- | --- | --- | --- | --- | --- | --- |
| > 283 | > 283 | 355 (≈ 627 µM) | 88 (≈ 155 µM) | 4 | excellent activity | CC(C)(CN1CCC(COc2ccc(-c3ccc(C(=O)N4C[C@H](O)C[C@H]4C(N)=O)cc3F)nc2)CC1)C(F)(F)F [Compound 1323, (2S,4R)-1-(3-fluoro-4-(5-((1-(3,3,3-trifluoro-2,2-dimethylpropyl)piperidin-4-yl)methoxy)pyridin-2-yl)benzoyl)-4-hydroxypyrrolidin-2-carboxamide] |
| > 283 | > 283 | > 283 | 54 (≈ 95.3 µM) | 0.07 | excellent activity | CC(C)(CN1CCC(COc2ccc(-c3ccc(C(=O)N4C[C@H](O)C[C@H]4C(N)=O)c(F)c3)nc2)CC1)C(F)(F)F [Compound 1268, (2S,4R)-1-(2-fluoro-4-(5-((1-(3,3,3-trifluoro-2,2-dimethylpropyl)piperidin-4-yl)methoxy)pyridin-2-yl)benzoyl)-4-hydroxypyrrolidin-2-carboxamide] |
| > 279 | > 279 | > 279 | > 279 | 12 |  | CCC(F)(CC)CN1CCC(COc2ccc(-c3ccc(C(=O)N4C[C@H](O)C[C@@]4(C)C(N)=O)cc3F)nc2)CC1 [Compound 1292, (2S,4R)-1-(4-(5-((1-(2-ethyl-2-fluorobutyl)piperidin-4-yl)methoxy)pyridin-2-yl)-3-fluorobenzoyl)-4-hydroxy-2-methylpyrrolidin-2-carboxamide] |
| > 271 | > 271 | 157 (≈ 289 µM) | 55 (≈ 101 µM) | 2 |  | CCC(F)(CC)CN1CCC(COc2ccc(-c3ccc(C(=O)N4C[C@H](O)C[C@H]4C(N)=O)cc3F)cc2)CC1 [Compound 1205] |
|  |  |  |  | 9 |  | CC(C)(F)CN1CCC(COc2cnc(-c3ccc(C(=O)N4CCC[C@@]4(C)C(N)=O)c(F)c3)nc2)CC1 [Compound 1206, (S)-1-(2-fluoro-4-(5-((1-(2-fluoro-2-methylpropyl)piperidin-4-yl)methoxy)pyrimidin-2-yl)benzoyl)-2-methylpyrrolidin-2-carboxamide] |
|  |  |  |  | 1 |  | C[C@@]1(C(N)=O)C[C@@H](O)CN1C(=O)c1ccc(-c2ccc(OCC3CCN(CC4(C(F)(F)F)CCC4)CC3)cc2)c(F)c1 [Compound 1258, (2S,4R)-1-(2-fluoro-4′-((1-((1-(trifluoromethyl)cyclobutyl)methyl)piperidin-4-yl)methoxy)biphenylcarbonyl)-4-hydroxy-2-methylpyrrolidin-2-carboxamide] |
|  |  |  |  | 0.1 | excellent activity | NC(=O)[C@@H]1[C@@H](O)CCN1C(=O)c1ccc(-c2cnc(OCC3CCN(CC4(C(F)(F)F)CCC4)CC3)cn2)cc1F [Compound 1249, (2S,3S)-1-(2-fluoro-4-(5-((1-((1-(trifluoromethyl)cyclobutyl)methyl)piperidin-4-yl)methoxy)pyrazin-2-yl)benzoyl)-3-hydroxypyrrolidin-2-carboxamide] |
|  |  |  |  | 0.8 | excellent activity | NC(=O)[C@@H]1C[C@@H](O)CN1C(=O)c1ccc(-c2cnc(OCC3CCN(CC4(C(F)(F)F)CCC4)CC3)cn2)cc1F [Compound 1200, (2S,4R)-1-(2-fluoro-4-(5-((1-((1-(trifluoromethyl)cyclobutyl)methyl)piperidin-4-yl)methoxy)pyrazin-2-yl)benzoyl)-4-hydroxypyrrolidin-2-carboxamide] |
|  |  |  |  | 0.09 | excellent activity | CC(C)(CN1CCC(COc2ccc(-c3ccc(C(=O)N4CCC[C@@]4(C)C(N)=O)c(F)c3)nc2)CC1)C(F)(F)F [Compound 1269, (S)-1-(2-fluoro-4-(5-((1-(3,3,3-trifluoro-2,2-dimethylpropyl)piperidin-4-yl)methoxy)pyridin-2-yl)benzoyl)-2-methylpyrrolidin-2-carboxamide] |
|  |  |  |  | 0.3 |  | CCC(F)(CC)CN1CCC(COc2ccc(-c3ccc(C(=O)N4CC[C@H](O)[C@H]4C(N)=O)c(F)c3)cc2F)CC1 [Compound 1244, (2S,3S)-1-(4′-((1-(2-ethyl-2-fluorobutyl)piperidin-4-yl)methoxy)-3,3′-difluorobiphenylcarbonyl)-3-hydroxypyrrolidin-2-carboxamide] |
| > 296 | > 296 | > 296 | 114 (≈ 192 µM) | 14 | excellent activity | C[C@@]1(C(N)=O)C[C@@H](O)CN1C(=O)c1ccc(-c2ccc(OCC3CCN(CC4(C(F)(F)F)CCC4)CC3)nc2)c(F)c1 [Compound 1325, (2S,4R)-1-(3-fluoro-4-(6-((1-((1-(trifluoromethyl)cyclobutyl)methyl)piperidin-4-yl)methoxy)pyridin-3-yl)benzoyl)-4-hydroxy-2-methylpyrrolidin-2-carboxamide] |
| > 296 | > 296 | > 296 | 112 (≈ 189 µM) | 10 | excellent activity | C[C@@]1(C(N)=O)C[C@@H](O)CN1C(=O)c1ccc(-c2ccc(OCC3CCN(CC4(C(F)(F)F)CCC4)CC3)cn2)c(F)c1 [Compound 1329, (2S,4R)-1-(3-fluoro-4-(5-((1-((1-(trifluoromethyl)cyclobutyl)methyl)piperidin-4-yl)methoxy)pyridin-2-yl)benzoyl)-4-hydroxy-2-methylpyrrolidin-2-carboxamide] |
|  |  |  |  | 0.9 |  | CCC(F)(F)CN1CCC(COc2ccc(-c3ccc(C(=O)N4CCC[C@H]4C(N)=O)c(F)c3)cn2)CC1 [Compound 1238, (S)-1-(4-(6-((1-(2,2-difluorobutyl)piperidin-4-yl)methoxy)pyridin-3-yl)-2-fluorobenzoyl)pyrrolidin-2-carboxamide] |
|  |  |  |  | 5 |  | CC(C)(F)CN1CCC(COc2ccc(-c3ccc(C(=O)N4CCC[C@@]4(C)C(N)=O)c(F)c3)cc2C#N)CC1 [Compound 1259, (S)-1-(3′-cyano-3-fluoro-4′-((1-(2-fluoro-2-methylpropyl)piperidin-4-yl)methoxy)biphenylcarbonyl)-2-methylpyrrolidin-2-carboxamide] |
| > 289 | > 289 | > 289 | 108 (≈ 187 µM) | 3 | excellent activity | NC(=O)[C@@H]1C[C@@H](O)CN1C(=O)c1ccc(-c2ccc(OCC3CCN(CC4(C(F)(F)F)CCC4)CC3)cn2)c(F)c1 [Compound 1286, (2S,4R)-1-(3-fluoro-4-(5-((1-((1-(trifluoromethyl)cyclobutyl)methyl)piperidin-4-yl)methoxy)pyridin-2-yl)benzoyl)-4-hydroxypyrrolidin-2-carboxamide] |
|  |  |  |  | 53 |  | CCC(F)(CC)CN1CCC(COc2ccc(-c3ccc(C(=O)N4C[C@H](O)C[C@@H]4C(N)=O)cc3F)cc2)CC1 [Compound 1321, (2R,4R)-1-(4′-((1-(2-ethyl-2-fluorobutyl)piperidin-4-yl)methoxy)-2-fluorobiphenylcarbonyl)-4-hydroxypyrrolidin-2-carboxamide] |
|  |  |  |  | 2 | excellent activity | NC(=O)[C@@H]1C[C@@H](O)CN1C(=O)c1ccc(-c2ccc(OCC3CCN(CC4(C(F)(F)F)CCC4)CC3)cc2)c(F)c1 [Compound 1255] |
|  |  |  |  | 0.04 | excellent activity | C[C@@]1(C(N)=O)CCCN1C(=O)c1ccc(-c2cnc(OCC3CCN(CC4(C(F)(F)F)CCC4)CC3)cn2)cc1F [Compound 1263, (S)-1-(2-fluoro-4-(5-((1-((1-(trifluoromethyl)cyclobutyl)methyl)piperidin-4-yl)methoxy)pyrazin-2-yl)benzoyl)-2-methylpyrrolidin-2-carboxamide] |
